Measured values published in ChEMBL document CHEMBL1146654, “3-(7-Azaindolyl)-4-arylmaleimides as potent, selective inhibitors of glycogen synthase kinase-3” (Bioorg Med Chem Lett, 2004).

Key:
[1] = biological target: Ca2+/calmodulin-dependent protein kinase II (CaM kinase II) (Rattus norvegicus) (UniProt P11275+P08413+P15791+P11730); assay: Inhibition of Calcium/calmodulin-dependent protein kinase type II; assay type: protein assay; parameters: scale not given: the % may be the effect or the level left
[2] = biological target: CDK3/cyclin E (Homo sapiens) (UniProt P24864+O96020+Q00526); assay: Inhibition of Cyclin-dependent kinase 3-cyclin E; assay type: protein-complex assay; parameters: scale not given: the % may be the effect or the level left
[3] = biological target: Cyclin-dependent kinase 5/CDK5 activator 1 (Homo sapiens) (UniProt Q00535+Q15078); assay: Inhibition of Cyclin-dependent kinase 5-p35nck5a; assay type: protein-complex assay; parameters: scale not given: the % may be the effect or the level left
[4] = biological target: Cyclin-dependent kinase 1/cyclin B (Homo sapiens, UniProt P06493); assay: Inhibition of Cyclin-dependent kinase 1-cyclin B; assay type: protein-complex assay
[5] = biological target: T1, Inhibitor of nuclear factor kappa-B kinase subunit beta (Homo sapiens) (UniProt O14920); assay: Inhibition of I-kappa-B-kinase beta; parameters: scale not given: the % may be the effect or the level left
T1 sequence (whole entry): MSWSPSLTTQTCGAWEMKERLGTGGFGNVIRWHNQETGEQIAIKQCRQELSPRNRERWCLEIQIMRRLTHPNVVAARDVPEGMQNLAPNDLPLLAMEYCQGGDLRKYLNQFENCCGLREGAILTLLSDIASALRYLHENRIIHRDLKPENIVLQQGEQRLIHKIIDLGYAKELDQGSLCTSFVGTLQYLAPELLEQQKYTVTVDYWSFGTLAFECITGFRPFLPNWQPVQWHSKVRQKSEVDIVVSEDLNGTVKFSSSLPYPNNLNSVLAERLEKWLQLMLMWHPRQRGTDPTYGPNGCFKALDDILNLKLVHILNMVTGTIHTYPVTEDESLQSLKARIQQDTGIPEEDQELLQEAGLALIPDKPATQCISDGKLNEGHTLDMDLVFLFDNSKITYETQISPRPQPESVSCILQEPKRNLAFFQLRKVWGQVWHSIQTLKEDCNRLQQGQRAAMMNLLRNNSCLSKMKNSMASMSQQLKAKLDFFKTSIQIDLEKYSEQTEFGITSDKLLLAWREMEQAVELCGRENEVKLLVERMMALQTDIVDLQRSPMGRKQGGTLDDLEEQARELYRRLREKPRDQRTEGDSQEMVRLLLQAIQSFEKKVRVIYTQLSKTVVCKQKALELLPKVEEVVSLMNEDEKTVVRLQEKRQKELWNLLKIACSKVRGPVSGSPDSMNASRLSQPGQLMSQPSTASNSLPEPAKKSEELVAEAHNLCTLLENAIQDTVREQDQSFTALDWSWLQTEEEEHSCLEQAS

[6] = biological target: Dual specificity mitogen-activated protein kinase kinase 1 (Homo sapiens) (UniProt Q02750); assay: Inhibition of mitogen activated protein kinase kinase 1; parameters: scale not given: the % may be the effect or the level left
[7] = biological target: Mitogen-activated protein kinase 1 (Homo sapiens) (UniProt P28482); assay: (§1) Inhibition of mitogen-activated protein kinase 2; parameters: scale not given: the % may be the effect or the level left
[8] = biological target: Mitogen-activated protein kinase 1 (Mus musculus) (UniProt P63085); assay: as §1; parameters: scale not given: the % may be the effect or the level left
[9] = biological target: T2, Dual specificity mitogen-activated protein kinase kinase 7 (Homo sapiens) (UniProt O14733); assay: Inhibition of Mitogen activated protein kinase kinase 7 beta; parameters: scale not given: the % may be the effect or the level left
T2 sequence (whole entry): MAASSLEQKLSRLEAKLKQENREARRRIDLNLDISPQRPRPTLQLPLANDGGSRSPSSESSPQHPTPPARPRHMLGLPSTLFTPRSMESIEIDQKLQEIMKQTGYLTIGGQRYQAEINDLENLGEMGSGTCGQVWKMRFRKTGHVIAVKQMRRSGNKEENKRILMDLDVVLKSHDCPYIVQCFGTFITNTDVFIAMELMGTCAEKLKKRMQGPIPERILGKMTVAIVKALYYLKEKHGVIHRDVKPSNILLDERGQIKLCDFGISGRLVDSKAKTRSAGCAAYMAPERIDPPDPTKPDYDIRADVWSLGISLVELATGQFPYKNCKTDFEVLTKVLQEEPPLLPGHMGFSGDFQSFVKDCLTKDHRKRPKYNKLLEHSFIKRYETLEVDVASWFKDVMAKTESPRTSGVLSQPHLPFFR

Bos taurus = species on record: Bos taurus; assay: Inhibition of bovine PKA; parameters: scale not given: the % may be the effect or the level left
[10] = biological target: Protein kinase C gamma type (Homo sapiens, UniProt P05129); assay: Inhibitory activity of 10 uM compound against protein kinase C-gamma using histone as substrate
[11] = biological target: Protein kinase C beta type (Homo sapiens, UniProt P05771); assay: Inhibition of PKCbetaII; parameters: scale not given: the % may be the effect or the level left
[12] = biological target: RAF proto-oncogene serine/threonine-protein kinase (Homo sapiens) (UniProt P04049); assay: Inhibition of RAF proto-oncogene serine/threonine-protein kinase; parameters: scale not given: the % may be the effect or the level left
[13] = biological target: Tyrosine-protein kinase Lyn (Mus musculus) (UniProt P25911); assay: Inhibition of Protein tyrosine kinase Lyn; parameters: scale not given: the % may be the effect or the level left
[14] = biological target: Ribosomal protein S6 kinase alpha-3 (Homo sapiens, UniProt P51812); assay: Inhibition of Ribosomal S6 kinase 3; parameters: scale not given: the % may be the effect or the level left
[15] = biological target: T3, Serine/threonine-protein kinase Sgk1 (Homo sapiens) (UniProt O00141); assay: Inhibition of Serum/glucocorticoid regulated kinase; parameters: scale not given: the % may be the effect or the level left
T3 sequence (whole entry): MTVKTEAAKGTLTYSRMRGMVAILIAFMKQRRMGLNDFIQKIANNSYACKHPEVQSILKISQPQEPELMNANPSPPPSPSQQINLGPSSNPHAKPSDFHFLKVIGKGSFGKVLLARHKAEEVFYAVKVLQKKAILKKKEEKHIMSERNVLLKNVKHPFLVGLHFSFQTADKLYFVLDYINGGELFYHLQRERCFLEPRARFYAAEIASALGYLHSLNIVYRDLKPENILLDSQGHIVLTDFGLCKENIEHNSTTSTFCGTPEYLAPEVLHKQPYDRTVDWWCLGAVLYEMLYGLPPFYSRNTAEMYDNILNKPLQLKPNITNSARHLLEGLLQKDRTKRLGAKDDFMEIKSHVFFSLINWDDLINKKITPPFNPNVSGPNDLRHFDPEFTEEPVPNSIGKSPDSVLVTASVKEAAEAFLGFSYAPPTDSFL

[16] = biological target: Mitogen-activated protein kinase 11 (Homo sapiens) (UniProt Q15759); assay: Inhibition of Stress activated protein kinase 2b; parameters: scale not given: the % may be the effect or the level left
[17] = biological target: Tyrosine-protein kinase Lck (Homo sapiens) (UniProt P06239); assay: Inhibition of p56 Lck tyrosine kinase; parameters: scale not given: the % may be the effect or the level left
Mus musculus = species on record: Mus musculus; assay: Inhibition of Abl kinase; parameters: scale not given: the % may be the effect or the level left

Sequence of Ribosomal protein S6 kinase alpha-3 (P51812 whole entry): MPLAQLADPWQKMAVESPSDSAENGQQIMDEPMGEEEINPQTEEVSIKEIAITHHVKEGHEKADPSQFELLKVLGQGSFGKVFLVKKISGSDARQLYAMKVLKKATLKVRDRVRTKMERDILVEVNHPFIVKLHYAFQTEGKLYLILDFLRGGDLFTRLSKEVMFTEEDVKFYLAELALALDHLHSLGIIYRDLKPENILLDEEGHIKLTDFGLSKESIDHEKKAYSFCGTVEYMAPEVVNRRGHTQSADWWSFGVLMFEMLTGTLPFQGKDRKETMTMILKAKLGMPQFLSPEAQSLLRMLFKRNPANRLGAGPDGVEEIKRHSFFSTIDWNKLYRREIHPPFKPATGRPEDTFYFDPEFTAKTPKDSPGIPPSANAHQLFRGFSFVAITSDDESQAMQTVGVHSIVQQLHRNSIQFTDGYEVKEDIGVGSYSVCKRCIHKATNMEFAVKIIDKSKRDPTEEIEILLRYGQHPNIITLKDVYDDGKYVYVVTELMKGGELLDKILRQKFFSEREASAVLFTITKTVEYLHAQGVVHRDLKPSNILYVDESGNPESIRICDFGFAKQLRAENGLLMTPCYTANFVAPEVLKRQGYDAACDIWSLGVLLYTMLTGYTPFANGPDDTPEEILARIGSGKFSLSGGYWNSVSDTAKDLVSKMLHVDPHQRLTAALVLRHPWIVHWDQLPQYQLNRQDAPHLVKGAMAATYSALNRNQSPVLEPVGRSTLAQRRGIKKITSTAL
Sequence of Tyrosine-protein kinase Lyn (Mus musculus) (P25911 whole entry): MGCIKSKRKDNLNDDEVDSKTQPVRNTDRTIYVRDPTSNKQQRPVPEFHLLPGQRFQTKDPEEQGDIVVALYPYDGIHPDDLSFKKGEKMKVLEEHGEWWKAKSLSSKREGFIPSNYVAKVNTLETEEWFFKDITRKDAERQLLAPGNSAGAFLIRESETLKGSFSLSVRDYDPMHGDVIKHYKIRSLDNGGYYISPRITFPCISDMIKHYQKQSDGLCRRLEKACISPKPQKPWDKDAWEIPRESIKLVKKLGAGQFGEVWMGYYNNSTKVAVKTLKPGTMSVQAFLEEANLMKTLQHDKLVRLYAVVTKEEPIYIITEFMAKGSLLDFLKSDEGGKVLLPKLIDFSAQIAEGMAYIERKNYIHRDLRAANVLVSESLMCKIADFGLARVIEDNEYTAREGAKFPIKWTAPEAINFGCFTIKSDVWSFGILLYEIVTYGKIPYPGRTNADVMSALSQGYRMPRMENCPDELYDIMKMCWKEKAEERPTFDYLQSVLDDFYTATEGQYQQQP
Sequence of Mitogen-activated protein kinase 11 (Homo sapiens) (Q15759 whole entry): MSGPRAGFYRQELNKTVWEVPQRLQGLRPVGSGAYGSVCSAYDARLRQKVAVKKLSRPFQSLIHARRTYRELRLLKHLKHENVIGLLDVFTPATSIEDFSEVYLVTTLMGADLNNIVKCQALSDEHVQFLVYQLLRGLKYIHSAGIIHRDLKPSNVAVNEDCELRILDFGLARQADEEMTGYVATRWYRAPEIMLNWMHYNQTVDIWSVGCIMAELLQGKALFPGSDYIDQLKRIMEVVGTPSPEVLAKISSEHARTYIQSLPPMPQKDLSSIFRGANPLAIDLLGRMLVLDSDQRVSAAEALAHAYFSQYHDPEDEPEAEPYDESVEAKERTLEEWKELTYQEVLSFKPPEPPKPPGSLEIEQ
Sequence of CDK3/cyclin E (Homo sapiens) (O96020 whole entry, looked up): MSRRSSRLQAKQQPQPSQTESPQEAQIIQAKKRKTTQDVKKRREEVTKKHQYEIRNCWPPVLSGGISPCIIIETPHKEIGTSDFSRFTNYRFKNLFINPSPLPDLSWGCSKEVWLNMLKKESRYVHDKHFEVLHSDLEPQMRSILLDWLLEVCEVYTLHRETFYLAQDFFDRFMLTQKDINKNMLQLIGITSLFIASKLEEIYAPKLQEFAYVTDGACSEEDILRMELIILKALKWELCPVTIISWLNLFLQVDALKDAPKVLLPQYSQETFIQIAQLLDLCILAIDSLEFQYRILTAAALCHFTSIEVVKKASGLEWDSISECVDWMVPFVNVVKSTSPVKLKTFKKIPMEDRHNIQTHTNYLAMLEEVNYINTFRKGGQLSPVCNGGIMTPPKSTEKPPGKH
Sequence of CDK3/cyclin E (Homo sapiens) (P24864 whole entry, looked up): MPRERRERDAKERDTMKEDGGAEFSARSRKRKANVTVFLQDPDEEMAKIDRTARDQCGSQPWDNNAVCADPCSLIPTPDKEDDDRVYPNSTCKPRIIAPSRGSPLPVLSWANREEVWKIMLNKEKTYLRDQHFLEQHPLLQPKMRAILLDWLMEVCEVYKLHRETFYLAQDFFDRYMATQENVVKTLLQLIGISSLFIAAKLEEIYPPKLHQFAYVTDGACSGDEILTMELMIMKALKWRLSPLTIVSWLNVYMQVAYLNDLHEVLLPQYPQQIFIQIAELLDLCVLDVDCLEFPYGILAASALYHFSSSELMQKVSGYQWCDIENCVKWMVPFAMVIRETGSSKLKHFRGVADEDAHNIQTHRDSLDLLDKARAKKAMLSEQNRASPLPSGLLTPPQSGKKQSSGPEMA
Sequence of CDK3/cyclin E (Homo sapiens) (Q00526 whole entry, looked up): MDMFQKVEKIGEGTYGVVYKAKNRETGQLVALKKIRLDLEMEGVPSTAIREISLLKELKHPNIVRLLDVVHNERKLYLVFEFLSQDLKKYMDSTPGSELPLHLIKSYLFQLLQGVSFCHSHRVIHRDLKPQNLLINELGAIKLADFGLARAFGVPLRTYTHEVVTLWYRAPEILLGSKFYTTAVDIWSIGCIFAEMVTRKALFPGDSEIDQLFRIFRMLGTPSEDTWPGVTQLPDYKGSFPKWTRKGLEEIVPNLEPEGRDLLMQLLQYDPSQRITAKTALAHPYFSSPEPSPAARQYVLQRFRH
Sequence of Cyclin-dependent kinase 5/CDK5 activator 1 (Homo sapiens) (Q00535 whole entry): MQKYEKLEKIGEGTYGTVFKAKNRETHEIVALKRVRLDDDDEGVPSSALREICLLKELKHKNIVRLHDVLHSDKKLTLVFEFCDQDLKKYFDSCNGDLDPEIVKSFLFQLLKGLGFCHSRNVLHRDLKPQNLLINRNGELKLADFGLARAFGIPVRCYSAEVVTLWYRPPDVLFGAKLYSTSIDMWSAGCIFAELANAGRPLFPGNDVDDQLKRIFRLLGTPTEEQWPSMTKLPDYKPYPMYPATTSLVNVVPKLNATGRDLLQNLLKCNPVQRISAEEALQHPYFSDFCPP
Sequence of Cyclin-dependent kinase 5/CDK5 activator 1 (Homo sapiens) (Q15078 99-307 partner limits assumed): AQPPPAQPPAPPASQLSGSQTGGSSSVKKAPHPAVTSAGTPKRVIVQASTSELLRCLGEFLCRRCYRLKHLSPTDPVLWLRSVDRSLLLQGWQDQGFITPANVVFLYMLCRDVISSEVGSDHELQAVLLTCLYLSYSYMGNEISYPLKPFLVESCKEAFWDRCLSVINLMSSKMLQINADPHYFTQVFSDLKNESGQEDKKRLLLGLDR
Sequence of Mitogen-activated protein kinase 1 (Mus musculus) (P63085 whole entry): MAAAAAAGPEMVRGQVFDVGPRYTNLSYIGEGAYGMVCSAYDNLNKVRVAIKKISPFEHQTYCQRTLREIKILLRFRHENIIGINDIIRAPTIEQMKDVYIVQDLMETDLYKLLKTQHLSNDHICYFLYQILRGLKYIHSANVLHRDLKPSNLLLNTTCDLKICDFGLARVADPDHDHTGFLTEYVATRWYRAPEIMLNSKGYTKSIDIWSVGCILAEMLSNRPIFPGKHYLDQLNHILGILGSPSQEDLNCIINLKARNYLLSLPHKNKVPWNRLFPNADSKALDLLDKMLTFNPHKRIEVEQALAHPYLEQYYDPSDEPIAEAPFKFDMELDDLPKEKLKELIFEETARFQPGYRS
Sequence of Tyrosine-protein kinase Lck (Homo sapiens) (P06239 2-509 limits assumed): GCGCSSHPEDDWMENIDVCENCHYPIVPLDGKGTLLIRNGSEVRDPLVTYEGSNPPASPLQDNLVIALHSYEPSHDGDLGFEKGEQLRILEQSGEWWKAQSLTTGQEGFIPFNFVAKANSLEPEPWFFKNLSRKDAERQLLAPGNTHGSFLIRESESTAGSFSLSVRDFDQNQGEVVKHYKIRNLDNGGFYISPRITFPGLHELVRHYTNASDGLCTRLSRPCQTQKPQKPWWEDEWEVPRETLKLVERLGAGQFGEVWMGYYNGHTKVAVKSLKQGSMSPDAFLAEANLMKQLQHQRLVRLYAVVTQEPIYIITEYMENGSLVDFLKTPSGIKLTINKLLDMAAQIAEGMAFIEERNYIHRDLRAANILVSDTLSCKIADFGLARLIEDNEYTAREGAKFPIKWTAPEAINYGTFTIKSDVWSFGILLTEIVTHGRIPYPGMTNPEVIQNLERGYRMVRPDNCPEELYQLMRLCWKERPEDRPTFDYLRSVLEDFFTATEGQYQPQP
Sequence of Dual specificity mitogen-activated protein kinase kinase 1 (Homo sapiens) (Q02750 whole entry): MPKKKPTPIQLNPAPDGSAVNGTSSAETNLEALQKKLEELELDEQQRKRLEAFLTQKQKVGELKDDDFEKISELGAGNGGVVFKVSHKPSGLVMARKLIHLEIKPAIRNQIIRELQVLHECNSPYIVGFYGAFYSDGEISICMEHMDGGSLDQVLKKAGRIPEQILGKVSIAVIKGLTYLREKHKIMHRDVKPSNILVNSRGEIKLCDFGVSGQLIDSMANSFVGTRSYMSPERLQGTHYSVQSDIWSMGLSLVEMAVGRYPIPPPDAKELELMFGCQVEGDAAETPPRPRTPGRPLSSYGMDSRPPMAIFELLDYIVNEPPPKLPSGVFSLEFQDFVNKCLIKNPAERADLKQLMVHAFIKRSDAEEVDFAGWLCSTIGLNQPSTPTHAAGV
Sequence of Mitogen-activated protein kinase 1 (Homo sapiens) (P28482 whole entry): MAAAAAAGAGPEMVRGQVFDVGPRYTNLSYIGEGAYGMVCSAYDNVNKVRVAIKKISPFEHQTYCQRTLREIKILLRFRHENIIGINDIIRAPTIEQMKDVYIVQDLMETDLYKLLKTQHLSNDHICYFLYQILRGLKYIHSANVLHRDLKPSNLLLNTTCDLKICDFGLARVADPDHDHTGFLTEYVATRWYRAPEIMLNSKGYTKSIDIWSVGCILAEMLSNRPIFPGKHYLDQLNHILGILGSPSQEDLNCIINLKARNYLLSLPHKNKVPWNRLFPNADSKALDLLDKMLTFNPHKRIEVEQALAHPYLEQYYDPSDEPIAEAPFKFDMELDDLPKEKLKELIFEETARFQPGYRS

Row | Compound | Activity [1] | Activity [2] | Activity [3] | IC50 [4] | Activity [5] | Activity [6] | Activity [7] | Activity [8] | Activity [9] | Activity (Bos taurus) | inhibition [10] | Activity [11] | Activity [12] | Activity [13] | Activity [14] | Activity [15] | Activity [16] | Activity [17] | Activity (Mus musculus)
1 | O=C1NC(=O)C(c2cn(CCCO)c3ncccc23)=C1c1ncc(C(F)(F)F)cc1Cl | 76% | 62% | 25% | 5800 nM | 83% | 74% | 91% | 93% | 68% | 86% | < 50% | 70% | 74% | 85% | 60% | 87% | 94% | 82% | 93%
2 | COc1ccccc1C1=C(c2cn(CCCNC(=O)OC(C)(C)C)c3ncccc23)C(=O)NC1=O | 60% | 3% | 2% | 170 nM | 91% | 100% | 92% | 89% | 101% | 112% | < 50% | 15% | 92% | 20% | 24% | 105% | 106% | 67% | 91%
3 | COCCCn1cc(C2=C(c3ccccc3O)C(=O)NC2=O)c2cccnc21 | 63% | 26% | 9% | 700 nM | 81% | 94% | 92% | 100% | 71% | 99% | < 50% | 32% | 74% | 81% | 33% | 98% | 102% | 84% | 86%
